Measurements as given in ChEMBL document CHEMBL4376820, “Homodimeric Tobramycin Adjuvant Repurposes Novobiocin as an Effective Antibacterial Agent against Gram-Negative Bacteria” (J Med Chem, 2019).
The source made the active and inactive calls. The rule behind the calls is not given here.

Key:
Acinetobacter baumannii [1] = test: Bactericidal activity against Acinetobacter baumannii ATCC 17978 assessed as log reduction in colony forming units per ml at 7.1 uM in LB media after 9 hrs by time-kill assay; format: functional
Pseudomonas aeruginosa [2] = test: Synergistic antibacterial activity against wild type Pseudomonas aeruginosa PAO1 assessed as potentiation of cefotaxime-induced antibacterial effect incubated for 18 hrs by checkerboard assay; format: functional, organism-based
Acinetobacter baumannii [3] = test: Potentiation of novobiocin-induced antibacterial activity against novobiocin and colistin resistant Acinetobacter baumannii ATCC 17978 mutant generated from seven serial passages by checkerboard assay; format: functional, organism-based
Pseudomonas aeruginosa [4] = test: Synergistic antibacterial activity against wild type Pseudomonas aeruginosa PAO1 assessed as potentiation of ceftazidime-induced antibacterial effect incubated for 18 hrs by checkerboard assay; format: functional, organism-based

In the case of `NC[C@H]1O[C@H](O[C@H]2[C@H](OCCCCc3cn(CCCCO[C@@H]4[C@@H](O[C@H]5O[C@H](CO)[C@@H](O)[C@H](N)[C@H]5O)[C@H](N)C[C@H](N)[C@H]4O[C@H]4O[C@H](CN)[C@@H](O)C[C@H]4N)nn3)[C@@H](O[C@H]3O[C@H](CO)[C@@H](O)[C@H](N)[C@H]3O)[C@H](N)C[C@@H]2N)[C@H](N)C[C@@H]1O.O=C(O)C(F)(F)F.O=C(O)C(F)(F)F.O=C(O)C(F)(F)F.O=C(O)C(F)(F)F.O=C(O)C(F)(F)F.O=C(O)C(F)(F)F.O=C(O)C(F)(F)F.O=C(O)C(F)(F)F.O=C(O)C(F)(F)F.O=C(O)C(F)(F)F`, the Activity (Acinetobacter baumannii [1]) is reported as -3 CFU/ml, the Activity (Pseudomonas aeruginosa [2]) is reported as “Dose-dependent effect” and the Activity (Acinetobacter baumannii [3]) is reported as “inactive”. The Activity (Pseudomonas aeruginosa [4]) was “Dose-dependent effect”.
